The record followed here is publication PMC11644518 (Plants, 2024).

The target of test [1] is T1, SARS-CoV PLpro (Severe acute respiratory syndrome coronavirus, UniProt P0C6X7). Description: biochemical. Particulars: for IC50: IC50 Value, SARS-CoV PLpro inhibitory activity.
The target in test [2] is T1, SARS-CoV PLpro. As to the kind of experiment: biochemical. Particulars: for Ki: Ki (inhibition constant).

Several values for one entry are separate records, joined by “and”; a condition that tells them apart may be missing. Equal values may be shown once.

A word on the IC50: it is the concentration needed to halve the response being measured. A high value points to weaker potency in that assay. As usually defined, the Ki is a measure of affinity in units of concentration, obtained from inhibition or displacement. Consider `COc1c(O)ccc(C2COc3cc(O)cc(O)c3C2=O)c1OC` (stereo not shown) [Compound 9, parvisoflavanone], for which the midpoint of inhibition in test [1], the IC50, lay at 104 ± 6.1 µM. Besides, in test [2], the “Inhibition Mode” value was “Noncompetitive (75.3 ± 5.7)” and the Ki turned out to be 75.3 µM.
With `COc1c(CC=C(C)C)c(O)cc2c1[C@@H]1Oc3c(ccc(O)c3CC=C(C)C)[C@@H]1CO2` [Compound 3, 1-methoxyerythrabyssin II], in test [1], the “fold higher inhibition than demethoxylated analog 1” value came out at 2 fold and the IC50 turned out to be 11.2 µM. In test [2], the “Inhibition Mode” value is on record as “Noncompetitive (8.6 ± 1.1)” and the affinity, expressed as Ki, was 8.6 µM.
In test [1], `COc1cc(O)c(C/C=C(\C)CCC=C(C)C)c2c1[C@@H]1Oc3cc(O)ccc3[C@@H]1CO2` [Compound 6, bicolosin C] registered an IC50 of 9.3 ± 3.1 µM. Further, in test [2], the “Effect on Michaelis-Menten constant (Km)” value was “no effect”, the “Effect on Vmax” value was “reduced”, the “Inhibition Mode” value is recorded as “Noncompetitive (9.0 ± 1.4)” and the Reversibility of inhibition entry is listed as “reversible inhibitor”. In test [2], the Ki is 9.06 µM and 9 µM.
In the case of `CC(C)=CCc1cc2c(cc1O)OC[C@H]1c3ccc(O)c(CC=C(C)C)c3O[C@@H]21` [Compound 1, erythrabyssin II], in test [2], the “Inhibition Mode” value is given as “Noncompetitive (17.0 ± 3.1)”.
Take `CC(C)=CCC/C(C)=C/Cc1cc2c(cc1O)OC[C@H]1c3cc(C)c(O)c(CC=C(C)C)c3O[C@@H]21` [Compound 5, bicolosin B]: inhibition in test [1] was half-maximal at 217 ± 7.6 µM (IC50).
As to `CC(C)=CCc1cc2c(cc1O)OCC1c3cc(C)c(O)c(CC=C(C)C)c3OC21` (stereo not shown) [Compound 2, lespebuergine G4], the IC50 in test [1] is 33 µM and 32.9 µM. In test [2], the “Inhibition Mode” value is “Noncompetitive (33.2 ± 1.7)” and the affinity, expressed as Ki, was 33.2 µM.
In the case of `CC(C)=CCC/C(C)=C/Cc1c(O)ccc(C(=O)/C=C/c2ccc(O)cc2)c1O` [Compound 7, xanthoangelol], in test [1], the IC50 worked out at 6.3 ± 1.5 µM. In test [2], the “Inhibition Mode” value is recorded as “Noncompetitive (5.5 ± 0.8)” and the Ki turned out to be 5.5 µM.
Turning to `CC(C)=CCC[C@@]1(C)C=Cc2c(ccc(C(=O)/C=C/c3ccc(O)cc3)c2O)O1` (racemic) [Compound 8, (±)-lespeol], in test [1], the “fold lower potency than 7” value worked out at 8 fold and the IC50 was determined as 50.1 ± 4.2 µM. In test [2], the “Inhibition Mode” value is on record as “Noncompetitive (54.0 ± 4.5)” and the Ki came out at 54 µM.
As for `COc1c(CC=C(C)C)c(O)cc2c1[C@@H]1Oc3c(cc(C)c(O)c3CC=C(C)C)[C@@H]1CO2` [Compound 4, bicolosin A], the IC50 in test [1] is 43.3 µM and 43.2 µM. Further, in test [2], the “Inhibition Mode” value is on record as “Noncompetitive (45.2 ± 3.1)” and the Ki stood at 45.2 µM.
